The record followed here is EP4052593B1, “TOBACCO FILLER FOR HEAT-NOT-BURN TOBACCO PRODUCTS, HEAT-NOT-BURN TOBACCO PRODUCT, AND ELECTRICALLY HEATED TOBACCO PRODUCT” (Japan Tobacco Inc., priority 2019, dated 2021).

Series [1] in a line: Measurement of count median diameter of residual aerosol in dilution with DMS (differential mobility spectrometer). The format is physicochemical. The conditions noted are these: for count median diameter (result in words): Experimental Example 1, DMS; for Count median diameter: Experimental Example 1, DMS, reduced pressure 0.25 bar, primary dilution 25 L/min, secondary dilution 200-fold, weight addition ratio of Table 1. The text has this:
Since the DMS measures an aerosol under reduced pressure (0.25 bar) and a high dilution condition, an aerosol with high volatility is easily vanished and gasified. In the case of an aerosol with relatively low volatility, a particle diameter distribution is obtained in terms of residual aerosol, although the aerosol is reduced by volatilization. In this case, if the diameters of generated aerosol particles are the same, the particle diameter distribution of the residual aerosol varies depending of the level of volatility. In this Example, a peak particle diameter based on the number is considered to indicate the stability under reduced pressure and a high dilution condition and thus is used as the index. A larger count median diameter means that an aerosol is more stably present, and a smaller count median diameter means that an aerosol is more unstable. Under the conditions of this experiment, the primary dilution was performed at 25 L/min, and the secondary dilution was set to 200-fold and performed. Note that a mass peak particle diameter immediately after the generation before dilution and pressure reduction were involved was also separately measured with Spraytec (Model STP5321, Malvern), and, in the types of additives and the range of the amounts of additives added in this Example, there was no difference, and the count median diameters were present at about 200 nm.

A short description of series [2]: Measurement of solubility in glycerin (GC-FID). The format is physicochemical. The settings on record: Experimental Example 1, excess fatty acid in 2 g glycerin, standing 48 hours. The method, then:
The solubility in glycerin is most preferably measured by a method for quantitatively determining a fatty acid dissolved in 2 g of glycerin. Specifically, after an excessive amount of a fatty acid is added to glycerin, the mixture is separated into two layers, for example, by standing at ordinary temperature for 24 hours or more or by centrifugal separation, 100 mg aliquot of glycerin is taken, and transferred and dissolved into 2 mL of methanol, and the amount of fatty acid dissolved in glycerin is quantitatively determined by gas chromatograph-flame ionized detector (GC-FID) or gas chromatograph-mass spectrometer (GC-MS).
If the amount of fatty acid excessively added is large, the separation into two layers becomes difficult, and thus it is necessary to add the fatty acid in a slightly excessive amount.

On to `CCCCCCCCCCCCCCCC(=O)O` [palmitic acid], for which, in series [1], the “count median diameter (result in words)” value was “large count median diameters”.
On to `CCCCC/C=C\C/C=C\CCCCCCCC(=O)O` [Comparative Example 7, Linoleic acid], for which the Solubility in glycerin in series [2] came to 0.14 mg/g. Also, the Count median diameter in series [1] is given as 61.9 nm.
As for `CCCCCCCCCCCCCCCC(=O)O` [Example 1, Palmitic acid], the Count median diameter in series [1] came to 67.8 nm.
`CCCCCCCCCCCCCCCCCCC(=O)O` [Comparative Example 5, Nonadecanoic acid] registered a Solubility in glycerin in series [2] of 0.09 mg/g. For the same compound, the Count median diameter in series [1] was 74.6 nm.
In the same order, the values of `CCCCCCCCCCCCCC(=O)O` [Comparative Example 4, Myristic acid] are 0.14 mg/g and 51.6 nm.
In turn, `CC/C=C\C/C=C\C/C=C\CCCCCCCC(=O)O` [Comparative Example 6, Linolenic acid] displayed a Solubility in glycerin in series [2] of 0.32 mg/g.
Take `CCCCCCCC(=O)O` [Comparative Example 2, Octanoic acid]: in series [1], the Count median diameter was 38.7 nm.
On to `CCCCCCCCCCCCCCCCCC(=O)O` [Example 2, Stearic acid], for which, in series [1], the “count median diameter (result in words)” value was “large count median diameters” and the Count median diameter is 75.3 nm.
With `CCCCCCCCCC(=O)O` [Comparative Example 3, Decanoic acid], in series [1], the Count median diameter turned out to be 50.5 nm.
`CCCCCCCC/C=C\CCCCCCCC(=O)O` [Comparative Example 8, Oleic acid] displayed a Solubility in glycerin in series [2] of 1.82 mg/g. In addition, the Count median diameter in series [1] amounted to 55.1 nm.
